Assay results published in PMC3085955 (Journal of medicinal chemistry, 2011).

Tests used:
cultured mammalian cells = details: cited from earlier work
T. gondii RHΔhxgprt = assay type: cell-based, Toxoplasma gondii; details: for apicoplast replication: 1st infection cycle, T. gondii RHΔhxgprt
T. gondii YFP = experiment: T. gondii replication assay in two successive infection cycles; assay type: cell-based, Toxoplasma gondii; details: exposure to less than 1 μM in the first cycle

## CC[C@H]1OC(=O)[C@H](C)[C@@H](O[C@H]2C[C@@](C)(OC)[C@@H](O)[C@H](C)O2)[C@H](C)[C@@H](O[C@@H]2O[C@H](C)C[C@H](N(C)C)[C@H]2O)[C@](C)(O)C[C@@H](C)CN(C)[C@H](C)[C@@H](O)[C@]1(C)O [Compound 3, Azithromycin]
Cultured mammalian cells
  concentration showing toxicity against cultured mammalian cells: ~100 µM
T. gondii RHΔhxgprt
  apicoplast replication: significantly impaired
T. gondii YFP
  reduction in parasite titers by the end of the second infection cycle: > 2 fold

## CC[C@H]1OC(=O)[C@H](C)[C@@H](O[C@H]2C[C@@](C)(OC)[C@@H](O)[C@H](C)O2)[C@H](C)[C@@H](O[C@@H]2O[C@H](C)C[C@H](N(C)C)[C@H]2O)[C@](C)(O)C[C@@H](C)CN(Cc2ccccc2)[C@H](C)[C@@H](O)[C@]1(C)O [Compound 11, N-benzyl-azithromycin]
T. gondii RHΔhxgprt
  apicoplast replication: significantly impaired

## CC[C@H]1OC(=O)[C@H](C)[C@@H](O[C@H]2C[C@@](C)(OC)[C@@H](O)[C@H](C)O2)[C@H](C)[C@@H](O[C@@H]2O[C@H](C)C[C@H](N(C)C)[C@H]2O)[C@](C)(O)C[C@@H](C)CN(CCCc2ccccc2)[C@H](C)[C@@H](O)[C@]1(C)O [Compound 30, N-phenylpropyl-azithromycin]
T. gondii RHΔhxgprt
  apicoplast replication: significantly impaired

## CCc1nc(N)nc(N)c1-c1ccc(Cl)cc1 [Pyrimethamine]
T. gondii RHΔhxgprt; either infection cycle
  ratio of plastid to nuclear DNA: did not affect

## Spiramycin
T. gondii RHΔhxgprt
  apicoplast replication: significantly impaired
